Laboratory results published in US10815444B2, “Use of specific derivatives of quaternized nitrogen compounds as additives in fuels and lubricants” (BASF SE, priority 2013, dated 2020).

Legend:
[1] = Procedure: The partition coefficient is determined by means of various methods according to the value.
[2] = Storage stability of formulations at −20° C.; format: physicochemical
Procedure: The following formulations were tested for storage stability at −20° C.: […]
a) 1:5 Dilution in Solvent Naphtha (5 Parts):
b) 1:5:1 Dilution in 2-Ethylhexyl Nitrate (5 Parts) and Solvent Naphtha (1 Part)

[3] = Motor oil compatibility to standard DGMK 531 1-A (filtration time); settings: for filtration time: 10 g additive + 10 g motor oil, 90° C. three days, 500 ml EN590 B7 diesel, 0.8 μm membrane filter, 200 mbar; for filterability / motor oil compatibility pass/fail: DGMK 531 1-A
Procedure: Determination to standard DGMK 531 1-A with EN590 B7 fuel from Aral, unadditized, and Wintershall Multi-Rekord Top 15W-40 motor oil.
10 g in each case of motor oil and 10 g of the additive to be tested are weighed into a 500 ml Erlenmeyer flask and homogenized. The flask containing the mixture is loosely sealed with a glass stopper and conditioned in a drying cabinet at a temperature of 90±3° C. for three days. After the conditioning, the sample is cooled in a fume hood at room temperature for one hour. The mixture is then made up with 500 ml of diesel fuel and mixed thoroughly. A membrane filter of diameter 50 mm and pore size 0.8 μm is inserted into the filtration apparatus. Mixture is filtered through the membrane filter with the aid of a reduced pressure of 200 mbar. The filtration time is measured.

[4] = XUD9 engine test (keep clean), flow restriction, CEC F-23-01; settings: 0.1 mm needle stroke, Aral EN590 B7 fuel
Source text: 1. XUD9 Test—Determination of Flow Restriction
The procedure was according to the standard provisions of CEC F-23-01.
Test according to above procedure CEC F-23-01 in Peugeot XUD9 engine.

[5] = DW10 Zn engine test (clean-up), engine power; settings: 25 mg/kg active compound
Procedure: 2.2. DW10 Dirty-Up Clean-Up (DU-CU)
The DU-CU test is based on CEC test procedure F-098-08 Issue 5. The procedure is described in Issue 5 of the test procedure (CEC F-98-08). This is done using the same test setup and the PEUGEOT DW10 engine type.
The DU-CU test consists of two individual tests which are run in succession. The first test serves to form deposits (DU), the second to remove the deposits (CU). After the DU, the power loss is determined. After the end of the DU run, the engine is not operated for at least 8 hours and is cooled to ambient temperature. Thereafter, the CU fuel is used to start the CU without deinstalling and cleaning the injectors. The deposits and power loss ideally decline over the course of the CU test.
The initial power P0,cu [kW] is calculated from the measured torque at full load 4000/min directly after the test has started and the engine has run hot in the CU. The procedure is likewise described in Issue 5 of the test procedure.
The final power (Pend,cu) is determined in the 12th cycle in stage 12 (see table, FIG. 2). Here too, the operation point is full load 4000/min. Pend,cu [kW] is calculated from the torque measured.
The test was conducted with a Peugeot DW10 engine, which is used in CEC F-98-08 procedure, except that more severe conditions were used in the dirty-up part:
I. Dirty-up: the more severe conditions allow distinctly faster formation of injector deposits than under standard CEC F-98-08 conditions: The engine was operated at full load (4000 rpm) with EN590 B7 Aral, unadditized, containing 3 mg/kg Zn, for 4 h.

[6] = DW10 Na soap IDID test (clean-up), exhaust gas temperatures on cold start; settings: CU, 70 mg/kg active compound
Procedure: 3. IDID Test—Determination of Additive Effect on Internal Injector Deposits
The formation of deposits within the injector was characterized by the deviations in the exhaust gas temperatures of the cylinders at the cylinder outlet on cold starting of the DW10 engine.
To promote the formation of deposits, 1 mg/l of sodium salt of an organic acid, 20 mg/l of dodecenylsuccinic acid and 10 mg/l of water were added to the fuel.
The test is conducted as a dirty-up clean-up test (DU-CU).
Thereafter, the CU fuel is used to start the CU without deinstalling and cleaning the injectors. After the CU run over 8 h, after a rest phase of at least eight hours, a cold start of the engine is conducted, followed by idling for 10 minutes. The evaluation is effected by the comparison of the temperature profiles for the individual cylinders after the cold start in the DU and CU runs.
The IDID test indicates the formation of internal deposits in the injector. The characteristic used in this test is the exhaust gas temperature of the individual cylinders. In an injector system without IDIDs, the exhaust gas temperatures of the cylinders increase homogeneously.
The temperature sensors are beyond the cylinder head outlet in the exhaust gas manifold. Significant deviation of the individual cylinder temperatures (e.g. >20° C.) indicates the presence of internal injector deposits (IDIDs).
The tests (DU and CU) are each conducted with run time 8 h. The one-hour test cycle from CEC F-098-08 (see FIG. 1) is run through 8 times in each case. In the event of deviations of the individual cylinder temperatures of greater than 45° C. from the mean for all 4 cylinders, the test is stopped early.
To examine the influence of the additives on the performance of direct injection diesel engines, as a further test method, the IDID engine test was conducted, in which the exhaust gas temperatures in the cylinders at the cylinder outlet were determined on cold starting of the DW10 engine. (cf. method description above)
A DW10 direct injection diesel engine with common rail system from the manufacturer Peugeot was used, which was employed in the CEC F-098-08 test method. The method that was used derived from CEC F-098-08, with the difference that, rather than 1 ppm of Zn for artificial inducement of formation of deposits, 1 ppm by weight of sodium naphthenate and 20 ppm by weight of dodecenylsuccinic acid were used in each case. The fuel used was a commercial B7 diesel fuel according to EN 590 from Aral. The test duration is shortened to 8 hours compared to method CEC F-098-08. After respective DU and CU phases, the engine is cooled and then started at idling speed.
II. CU (clean-up) After the DU phase, the engine is operated with additized fuel without cleaning the injectors beforehand.
Again, the exhaust gas temperatures of the 4 cylinders (“C1” to “C4”) were measured at each of the cylinder outlets after 0 minutes (“ϑ0”) and after 5 minutes (“ϑ5”). The results of the exhaust gas temperature measurements with average values (“Δ”) and the greatest differences from Δ in the downward (“−”) and upward (“+”) directions for the two test runs are summarized in the following overview: […]

[7] = DW10 Na power-loss test (keep-clean); settings: 8 h, 1 ppm Na + 20 ppm dodecenylsuccinic acid and 150 ppm additive
Procedure: To examine the efficacy of the inventive compounds against power loss caused by metals such as Na, K and others (and not by Zn as described above), an IDID engine test was used. During the run, the power is measured to CEC F-098-08.

[8] = 1:5:1 dilution in 2-ethylhexyl nitrate (5 parts) and Solvent Naphtha (1 part)
[9] = 1:5 dilution in Solvent Naphtha (5 parts)

With CCCCCO [pentanol] the “partition coefficient log Pow” value [1] was 1.3.

For CCCCC(CC)CO (stereo not drawn) [2-ethylhexanol], the “partition coefficient log Pow” value [1] was 2.9.

In the case of “C12/14-NMe3-Methyl Oxalate [Comparative example 1, reference compound]”, the storage stability observation [2, 8] is reported as “solidification after 1 day”, the storage stability observation [2, 9] is reported as “solidification after 44 days” and the filtration time [3] is reported as over 300 s. The filterability [3] was “very poor filterability” and the “motor oil compatibility pass/fail” value [3] was “fail”.

In the case of “C12/14-NMe3-2-Propylheptyl Oxalate [Inventive example 1]”, the storage stability observation [2, 8] is reported as “clear liquid after 14 days”, the storage stability observation [2, 9] is reported as “clear liquid after 60 days” and the filtration time [3] is reported as 114 s. The filterability [3] was “good filterability”, the “motor oil compatibility pass/fail” value [3] was “pass” and the Flow restriction ([4]; dosage 24 mg/kg) was 46.6%. For the same compound, the Flow restriction ([4]; dosage 36 mg/kg) was 14.5%, the Flow restriction ([4]; dosage 48 mg/kg) was 4.5% and the “Engine power on commencement of clean-up test” value ([5]; 1 ppm Zn in EN590 B7, after dirty-up) was 90.2 kW. The “Engine power after engine running for 3 h” value ([5]; 1 ppm Zn in EN590 B7, clean-up) was 97.7 kW, the “Engine power until the end of the clean-up test” value ([5]; 1 ppm Zn in EN590 B7, clean-up lasting 8 h) was 97.7 kW and the “average exhaust gas temperature (Δ)” value [6] was 77 °C. For the same compound, the “evaluation of IDID clean-up” value [6] was “the IDIDs formed were removed”, the “greatest difference from Δ in the downward direction” value [6] was −8 °C and the “greatest difference from Δ in the upward direction” value [6] was “+5 °C”. The “exhaust gas temperature cylinder C1” value ([6]; after 0 minutes (ϑ0)) was “C1: 28 °C”, the “exhaust gas temperature cylinder C2” value ([6]; after 0 minutes (ϑ0)) was “C2: 27 °C” and the “exhaust gas temperature cylinder C3” value ([6]; after 0 minutes (ϑ0)) was “C3: 27 °C”. The “exhaust gas temperature cylinder C4” value ([6]; after 0 minutes (ϑ0)) was “C4: 26 °C”, the “exhaust gas temperature cylinder C1” value ([6]; after 5 minutes (ϑ5)) was “C1: 78 °C” and the “exhaust gas temperature cylinder C2” value ([6]; after 5 minutes (ϑ5)) was “C2: 82 °C”. For the same compound, the “exhaust gas temperature cylinder C3” value ([6]; after 5 minutes (ϑ5)) was “C3: 77 °C”, the “exhaust gas temperature cylinder C4” value ([6]; after 5 minutes (ϑ5)) was “C4: 69 °C” and the “Change in power in the test” value [7] was “+0.2%”. The “Engine power after the test” value [7] was 96.6 kW and the “Engine power before the test” value [7] was 96.4 kW.
